Experimental data reported in US8865897B2, “Crystal modifications-3-(1H-indol-3-yl)-4- [4-methyl-piperazin-1-yl)-quinazolin-4-yl] -pyrrole-2, 5-D ione” (Novartis AG, priority 2006, dated 2014).
Where two headings read alike, the source gives them in different places.

CC(=O)O.CN1CCN(c2nc(C3=C(c4c[nH]c5ccccc45)C(=O)NC3=O)c3ccccc3n2)CC1 [Form B, 3-(1.H.-indol-3-yl)-4-[2-(4-methyl-piperazin-1-yl)-quinazolin-4-yl]-pyrrole-2,5-dione acetate]
Moisture Sorption at 25° (Relative humidity 45 %): 0.4
Moisture Sorption at 25° (Relative humidity 55 %): 0.5
Moisture Sorption at 25° (Relative humidity 75 %): 0.6
Moisture Sorption at 25° (Relative humidity 85 %): 0.7
Moisture Sorption at 25° (Relative humidity 95 %): 0.6
XRPD pattern after DVS (after DVS moisture sorption at 25°): no change
maximum water uptake (at 80% r.h.): 0.7%
